Where “and” joins values, the source holds several entries; their conditions need not be identical. Equal entries are not always repeated. Numbers after ± are expanded uncertainties.
Conditions: 323.16 K, Liquid, Vibrating tube method

Measured: mass density

CCCCCC(=O)OCC(COC(=O)CCCCC)(COC(=O)CCCCC)COC(=O)CCCCC [pentaerythritol tetrahexanoate]
975.2 ± 1.2 kg/m3: 3663.4 kPa | 3696.6 kPa | 3725 kPa | 3741.8 kPa
974.3 ± 1.2 kg/m3: 2275.9 kPa | 2297.5 kPa | 2309.2 kPa | 2319 kPa | 2329.5 kPa | 2350.8 kPa | 2360.3 kPa
974.5 ± 1.2 kg/m3: 2394.7 kPa | 2448.6 kPa | 2484.5 kPa
979.7 ± 1.2 kg/m3: 10002 kPa | 10012 kPa | 10048 kPa | 10060 kPa | 10084 kPa | 10096 kPa
983.7 ± 1.2 kg/m3: 16333 kPa
973.7 ± 1.2 kg/m3: 1352 kPa | 1372.9 kPa | 1383.8 kPa | 1389.5 kPa | 1400.6 kPa | 1405.7 kPa | 1542.7 kPa | 1548.7 kPa | 1555.9 kPa
981.3 ± 1.2 kg/m3: 12660 kPa | 12684 kPa
974.1 ± 1.2 kg/m3: 2015.3 kPa | 2042.2 kPa | 2097.3 kPa | 2372.6 kPa
980.3 ± 1.2 kg/m3: 11088 kPa | 11112 kPa | 11122 kPa | 11155 kPa | 11174 kPa | 11199 kPa
979.5 ± 1.2 kg/m3: 9966.7 kPa | 9977.9 kPa
983.1 ± 1.2 kg/m3: 15500 kPa
973.9 ± 1.2 kg/m3: 1580.3 kPa | 1587.3 kPa | 1784.1 kPa | 1799.4 kPa | 1856.1 kPa | 1879.9 kPa
975.3 ± 1.2 kg/m3: 3633.2 kPa | 3649.5 kPa | 3679.8 kPa | 3710.8 kPa | 3756 kPa | 3773.4 kPa
974.4 ± 1.2 kg/m3: 2339.5 kPa | 2416.5 kPa | 2428.5 kPa | 2438.7 kPa | 2460.9 kPa | 2471.7 kPa
983.8 ± 1.2 kg/m3 and 983.7 ± 1.2 kg/m3: 16331 kPa | 16334 kPa
980.5 ± 1.2 kg/m3: 11150 kPa
979.6 ± 1.2 kg/m3: 10025 kPa | 10037 kPa | 10040 kPa
974 ± 1.2 kg/m3: 1592.8 kPa | 1792.4 kPa | 1808.1 kPa | 1815.2 kPa | 1823.9 kPa | 1831.3 kPa | 1839.8 kPa | 1848.7 kPa | 1864.5 kPa | 1872.1 kPa | 1889.3 kPa | 1998.3 kPa | 2007.3 kPa
983.2 ± 1.2 kg/m3: 15446 kPa | 15470 kPa
973.5 ± 1.2 kg/m3: 1108.4 kPa | 1116.1 kPa | 1173 kPa | 1182.7 kPa | 1197 kPa | 1206.2 kPa | 1224.6 kPa | 1234 kPa | 1336.1 kPa
975.4 ± 1.2 kg/m3: 3790.9 kPa
981.4 ± 1.2 kg/m3: 12767 kPa | 12848 kPa | 12899 kPa
973.8 ± 1.2 kg/m3: 1561.4 kPa | 1568.9 kPa | 1574.8 kPa
974.2 ± 1.2 kg/m3: 2024.8 kPa | 2032.8 kPa | 2051.9 kPa | 2078.2 kPa | 2086.8 kPa | 2105.3 kPa | 2285.6 kPa | 2382.7 kPa | 2404.4 kPa
979.8 ± 1.2 kg/m3: 10071 kPa
980.4 ± 1.2 kg/m3: 11101 kPa | 11136 kPa | 11157 kPa | 11160 kPa | 11163 kPa | 11168 kPa | 11186 kPa | 11198 kPa | 11200 kPa
981.5 ± 1.2 kg/m3: 12713 kPa | 12737 kPa | 12791 kPa | 12819 kPa | 12871 kPa
983.8 ± 1.2 kg/m3: 16336 kPa
973.4 ± 1.2 kg/m3: 1057.9 kPa | 1120.2 kPa | 1124.1 kPa | 1188.3 kPa | 1192.5 kPa | 1201.3 kPa | 1239.2 kPa
973.6 ± 1.2 kg/m3: 1111.9 kPa | 1169 kPa | 1178.4 kPa | 1211.4 kPa | 1215.4 kPa | 1219.4 kPa | 1228.9 kPa | 1340.9 kPa | 1346.8 kPa | 1357.4 kPa | 1362.4 kPa | 1368 kPa | 1395.4 kPa

Source: the NIST ThermoML archive (doi:10.1021/je060271a)
